This test concerns 3T3-L1 cells. Kind of test: Adipogenesis: differentiation of 3T3-L1 cells into adipocytes, oil red-O staining. To be noted: 10 days. It is filed as cell-based, mouse. The source says: It is reported here for the first time that capsaicin is a potent inhibitor of adipogenesis. The accepted model for the process of adipogenesis is the differentiation of mouse-derived 3T3-L1 fibroblasts into adipocytes after treatment with potent inducers such as dexamethasone, isobutyrylmethylxanthine, and insulin. In this model, the adipocytes are identified by the accumulation of lipid droplets in the cytoplasm. We tested the effect of the presence or absence of capsaicin on this process.
NIH 3T3-L1 cells were obtained from American Type Culture Collection (Manassas, Va.). NIH 3T3-L1 cells are a mouse-derived fibroblast cell line that convert into adipocytes under certain conditions. This cell system is well known in the art and is a standard model for the study of adipocyte metabolism. The cells were cultured using well known methods in complete medium (Dulbecco Modified Eagle's Medium (DMEM) (4500 mg glucose/liter) containing 10% fetal bovine serum (FBS)). When the cells were 75% confluent, they were subcultured into multi-well culture plates and allowed to grow to confluency. The differentiation of the cells into adipocytes was initiated by switching to inducing medium (complete medium containing 10 uM dexamethasone, 0.5 mM isobutyrylmethylxanthine, and 10 ug/ml insulin). 1 ug/ml and 0.5 ug/ml doses of capsaicin were added to a number of the culture wells. After 48 hours, the inducing medium was replaced with maintenance medium 1 (complete medium containing insulin (10 ug/ml) with or without capsaicin). After 24 hours, the cells were switched to maintenance medium 2 (complete medium with or without capsaicin). The cultures were followed for up to 10 days for differentiation into adipocytes. The culture medium was replaced every 2 days with a medium of similar composition. The cells were photographed every 2 days to follow their progress. On day 10, the cells were stained with oil red-O (to stain for intracellular lipid) and photographed.

As for `COc1cc(CNC(=O)CCCC/C=C/C(C)C)ccc1O` [capsaicin, trans-8-methyl-N-vanillyl-6-nonenamide], the differentiation into adipocytes result (0.5 ug/ml and 1 ug/ml) was “did not become adipocytes”. Moreover, the “lipid accumulation (oil red-O stain)” value is, setting by setting: (0.5 ug/ml, FIG. 2) “significant decrease in lipid accumulation”; (1 ug/ml, FIG. 3) “significant decrease in lipid accumulation”.

Values taken from patent US20090148546A1, “Methods and compounds fo rthe treatment of obesity and obesity-related disorders” (priority 2005, published 2009).
